Test results reported in the supplement of paper PMC3974653.
Counter-ions that a name gives are not always drawn.

Tested on: MTT (mouse pheochromocytoma)
Assay: IC50 of cell viability (ATP content)
Settings: (24 or 48 h)
Outline: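 MTT mouse pheochromocytoma cells (5 µl of 200,000 cells/ml per well, white 1536-well plates, DMEM with 5% FBS and 1% horse serum) were cultured overnight at 37°C, 5% CO2. They then received 23 nl library compound in DMSO by pintool at 8 concentrations (final 0.5 nM to 46 µM) for 24 or 48 hrs. CellTiter-Glo ATP luminescence was read after 15 minutes. Signals were normalised to positive-control (100% inhibition) and DMSO (0%) wells, and IC50 came from a four-parameter logistic fit.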

Structure (SMILES) | IC50 of cell viability [µM]
CC1(C)C(/C=C/C=C/C=C/C=C2\N(CCCCS(=O)(=O)[O-])c3ccc4ccccc4c3C2(C)C)=[N+](CCCCS(=O)(=O)[O-])c2ccc3ccccc3c21 [INDOCYANINE GREEN] | > 46
c1ccc2[nH]ccc2c1 [INDOLUM] | > 46
OC1C(O)C(O)C(O)C(O)C1O (stereo not given) [INOSITOL] | > 46
OC[C@@H]1O[C@](CO)(O[C@H]2O[C@H](CO)[C@@H](O)[C@H](O)[C@H]2O)[C@H](O)[C@H]1O [INULIN (HYDROXYMETHYL, C-14)] | > 46
CCOC(=O)c1ncn2c1CN(C)C(=O)c1c(I)cccc1-2 [IOMAZENIL] | > 46
Cl.Nc1c2c(nc3c1CCC3)CCCC2.O [IPIDACRINE HYDROCHLORIDE HYDRATE] | > 46
CC(C)CCCC(C)NC(C)C (stereo not given) [IPROHEPTINE HYDROCHLORIDE] | > 46
CC(C)NNC(=O)c1ccncc1.O=[S+]([O-])(O)O [IPRONIAZID SULFATE] | > 46
CC(C)c1ncc([N+](=O)[O-])n1C [IPRONIDAZOLE] | > 46
CCCCC/1=N/C2(CCCC2)C(=O)N1CC3=CC=C(C=C3)C4=CC=CC=C4C5=NN=N[NH]5 [IRBESARTAN] | > 46
Nc1nc(N)nc(-c2cc(Cl)ccc2Cl)n1 [IRSOGLADINE MALEATE] | > 46
CC(C)NCC(O)COc1ccccc1-n1cccc1 (stereo not given) [ISAMOLTANE] | > 46
FC(F)OC(Cl)C(F)(F)F (stereo not given) [ISOFLURANE] | > 46
O=[N+]([O-])O[C@H]1CO[C@H]2[C@@H]1OC[C@H]2O [ISOSORBIDE MONONITRATE] | > 46
O[C@@H]1CO[C@H]2[C@@H]1OC[C@@H]2O [ISOSORBIDE] | > 46

More lines, now with the values ahead:

IC50 of cell viability [µM] | Structure (SMILES)
> 46 | CC(C(=O)O)c1ccc(N2Cc3ccccc3C2=O)cc1 (stereo not given) [INDOPROFEN]
> 46 | O=C(NC1CCN(CCc2c[nH]c3ccccc23)CC1)c1ccccc1 [INDORAMIN HYDROCHLORIDE]
> 46 | Cc1c(I)c(=O)n(-c2ccccc2)n1C [IODOANTIPYRINE]
> 46 | O=C(O)CNC(=O)c1ccccc1I [IODOHIPPURATE SODIUM, I-123]
> 46 | [O-]C(=O)C1=CC=CC=C1C(C2=CC(=C([O-])C(=C2)I)I)=C\3/C=C(I)\C(=O)\C(=C3)I [IODOPHTHALEINUM NATRICUM]
> 46 | CN(C)/C=N/c1c(I)cc(I)c(CCC(=O)O)c1I [IPODATE CALCIUM]
> 46 | CC(C)Cn1cnc2c1c(=O)n(C)c(=O)n2C [ISBUFYLLINUM]
> 46 | CCC(C)[C@@H](N)C(=O)O (stereo not given in full) [ISOLEUCINE]
> 46 | CCC(C)C(N)C(=O)O (stereo not given) [ISOLEUCINE]
> 46 | CC[C@@H](C)C(N)C(=O)O (stereo not given in full) [ISOLEUCINE]
> 46 | O=C(NNC[S+](=O)([O-])O)c1ccncc1 [ISONIAZID SODIUM METHANESULFONATE]
> 46 | Cc1c(C(C)C)c(=O)n(-c2ccccc2)n1C [ISOPROPYLANTIPYRINE]
> 46 | CC(C)NCC(O)c1ccc(O)c(O)c1 (stereo not given) [ISOPROTERENOL]
> 46 | C[C@H](CN1c2ccccc2Sc2cccnc21)N(C)C [ISOTHIPENDYL HYDROCHLORIDE]
> 46 | CN1\C(=C(\O)C2=C(C=CC=C2)[S+]1([O-])=O)C(=O)NC3=NOC(=C3)C [ISOXICAM]
